# System: SH-SY5Y
# Test: Neuroprotective activity against rotenone-induced cytotoxicity in human SH-SY5Y cells assessed as increase in cell viability at 1 to 20 uM incubated for 24 hrs by MTT assay relative to control
# Format: functional
# Settings: dose 1-20 µM
row,Compound,Activity
1,COc1cc(CCC(=O)Nc2nc3ccccc3s2)cc(OC)c1OC(=O)C1CCCN1C(=O)OC(C)(C)C (stereo unspecified),>80%
2,COc1cc(CCC(=O)NCc2ccc3c(c2)OCO3)cc(OC)c1OC(=O)c1ccccn1,>80%
3,COc1ccc(N2CCN(C(=O)CCc3cc(OC)c(OC(=O)c4ccccn4)c(OC)c3)CC2)cc1,>80%
4,COc1cc(/C=C/C(=O)N2CCCCC2)cc(OC)c1OC(=O)c1ccccn1,>80%
5,COc1cc(CCC(=O)N2CCN(c3ccccc3)CC2)cc(OC)c1OC(=O)c1ccccn1,>80%
6,COc1cc(CCC(=O)N2CCCCC2)cc(OC)c1OC(=O)C1CCCN1C(=O)OC(C)(C)C (stereo unspecified),>80%
